Results taken from US20250230193A1, “CYCLIC COMPOUND HAVING SELECTIVE KRAS INHIBITORY EFFECT ON HRAS AND NRAS” (CHUGAI SEIYAKU KABUSHIKI KAISHA, priority 2022, published 2025).
*1 amine or outer side, *2 acyl side, *3 side chain or, on linkers, in order; H or OH if unused. Where a SMILES comes first, the peptide text is derived from it. Bridges are numbered along the chain shown (N, C = ends). [ ]: non-standard residue; d: D form. The star is where a group is joined. hPhe(3-Cl-4-CF3) = N[C@@H](CCc1ccc(C(F)(F)F)c(Cl)c1)C(=O)O; NPrPhe(4-CF3) = CCCN[C@@H](Cc1ccc(C(F)(F)F)cc1)C(=O)O; X27 = Cc1ccc(C[C@@H](C(=O)[*:2])N(CC2CCCCC2)[*:1])cc1; Pip(4,4-F2) = O=C(O)[C@@H]1CC(F)(F)CCN1; NMeGly(cPent) = CN[C@H](C(=O)O)C1CCCC1; NMeD = CN[C@@H](CC(=O)O)C(=O)O; NMeL = CN[C@@H](CC(C)C)C(=O)O; Morpholide = C1CN(*)CCO1; Ac5c = NC1(C(=O)O)CCCC1; Aze = O=C(O)[C@@H]1CCN1; Sar = CNCC(=O)O

Key:
[1] = target: GDP-bound NRAS wild-type protein (Homo sapiens, UniProt P01111); assay: Binding to NRAS by surface plasmon resonance (SPR), Single Cycle Kinetics; settings: for NRAS/KRAS (ratio of KD value with respect to GDP-bound NRAS wild-type protein to KD value with respect to KRAS): class symbols
Chain of GDP-bound NRAS wild-type protein (P01111 whole entry): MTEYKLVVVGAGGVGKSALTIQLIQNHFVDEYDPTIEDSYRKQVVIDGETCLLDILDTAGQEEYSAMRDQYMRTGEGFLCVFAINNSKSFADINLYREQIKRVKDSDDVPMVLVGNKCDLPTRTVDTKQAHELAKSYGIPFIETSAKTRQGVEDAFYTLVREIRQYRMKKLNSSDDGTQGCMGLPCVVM

[2] = target: GDP-bound HRAS wild-type protein (Homo sapiens, UniProt P01112); assay: Binding to HRAS by surface plasmon resonance (SPR), Single Cycle Kinetics; settings: for HRAS/KRAS (ratio of KD value with respect to GDP-bound HRAS wild-type protein to KD value with respect to KRAS): class symbols
Chain of GDP-bound HRAS wild-type protein (P01112 whole entry): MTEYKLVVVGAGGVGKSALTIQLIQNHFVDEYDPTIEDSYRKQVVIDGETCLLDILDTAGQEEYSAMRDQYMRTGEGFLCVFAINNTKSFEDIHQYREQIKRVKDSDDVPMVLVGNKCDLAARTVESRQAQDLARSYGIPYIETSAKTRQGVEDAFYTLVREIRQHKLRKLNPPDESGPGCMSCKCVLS

[3] = GDP-bound NRAS wild-type vs GDP-bound KRAS wild-type, SPR
[4] = GDP-bound HRAS wild-type vs GDP-bound KRAS wild-type, SPR

CCO[C@@H]1C[C@H]2C(=O)N(C)C3(CCCC3)C(=O)N(C)[C@@H](C3CCCC3)C(=O)N(C)[C@H](C(=O)N(C)C)CC(=O)N(C)[C@@H](C3CC3)C(=O)N[C@@H]([C@@H](C)CC)C(=O)N(C)CC(=O)N(C)[C@H]3C/C=C\CCN(C3=O)[C@@H](Cc3ccc(C)cc3)C(=O)N(C)CC(=O)N[C@@H](CCc3cc(F)c(C(F)(F)F)c(F)c3)C(=O)N2C1 [PP1808]
NRAS/KRAS (ratio of KD value for NRAS to KD value for KRAS) [1, 3]: A (a compound having 10 or more and less than 20 is denoted as A)
HRAS/KRAS (ratio of KD value for HRAS to KD value for KRAS) [2, 4]: B (a compound having 3 or more and less than 10 is denoted as B)

CCOC[C@H]1C(=O)N[C@@H]([C@@H](C)CC)C(=O)N(C)CC(=O)N(C)[C@H]2C/C=C\CCN(C2=O)[C@@H](Cc2ccc(C(F)(F)F)cc2)C(=O)N(C)CC(=O)N[C@@H](CCc2ccc(C(F)(F)F)c(OC)c2)C(=O)N2C[C@H](OCC)C[C@H]2C(=O)N(C)C2(CCC2)C(=O)N(C)[C@@H](C(CC)CC)C(=O)N(C)[C@H](C(=O)N(C)C)CC(=O)N1C [PP2383]
NRAS/KRAS (ratio of KD value with respect to NRAS to KD value with respect to KRAS) ([1]; SPR, GDP-bound NRAS wild-type vs GDP-bound KRAS wild-type): A (a compound having 10 or more and less than 20 is denoted as A)
HRAS/KRAS (ratio of KD value with respect to HRAS to KD value with respect to KRAS) ([2]; SPR, GDP-bound HRAS wild-type vs GDP-bound KRAS wild-type): A (a compound having 10 or more and less than 20 is denoted as A)

CC[C@H](C)[C@@H]1NC(=O)[C@H](CC(C)C)N(C)C(=O)C[C@@H](C(=O)N2CCOCC2)N(C)C(=O)[C@H](C2CCCC2)N(C)C(=O)C2(CCCC2)NC(=O)[C@@H]2CCCN2C(=O)[C@H](CCc2ccc(C(F)(F)F)c(Cl)c2)NC(=O)CN(C)C(=O)[C@H](Cc2ccc(C)cc2)N(CC2CCCCC2)C(=O)CN(C)C(=O)CN(C)C1=O [PP0097] ([NMeL]I[Sar][Sar][X27][Sar][hPhe(3-Cl-4-CF3)]P[Ac5c][NMeGly(cPent)][NMeD]-Morpholide; lactam N-11)
NRAS/KRAS (ratio of KD for GDP-bound NRAS wild-type to KD for KRAS) ([1]; SPR): C (A compound having a KD ratio of 0.1 or more and less than 3 is denoted as C)
HRAS/KRAS (ratio of KD for GDP-bound HRAS wild-type to KD for KRAS) ([2]; SPR): C (A compound having a KD ratio of 0.1 or more and less than 3 is denoted as C)

CC[C@H](C)[C@@H]1NC(=O)[C@H](C)N(C)C(=O)C[C@@H](C(=O)N(C)C)N(C)C(=O)[C@H](C2CCCC2)N(C)C(=O)C2(CC(C)(C)C2)NC(=O)[C@@H]2CC(F)(F)CN2C(=O)[C@H](CCc2cc(F)c(C(F)(F)F)c(F)c2)NC(=O)CN(C)C(=O)[C@H](Cc2ccc(C(F)(F)F)cc2)N2CC/C=C\C[C@@H](C2=O)N(C)C(=O)CN(C)C1=O [PP1707]
NRAS/KRAS (ratio of KD value for NRAS to KD value for KRAS) [1, 3]: AA (a compound having 20 or more is denoted as AA)
HRAS/KRAS (ratio of KD value for HRAS to KD value for KRAS) [2, 4]: A (a compound having 10 or more and less than 20 is denoted as A)

CCCN1C(=O)CN(C)C(=O)[C@@H]2CCN2C(=O)[C@H]([C@@H](C)CC)NC(=O)[C@H](CC(C)C)N(C)C(=O)C[C@@H](C(=O)N2CCOCC2)N(C)C(=O)[C@H](C2CCCC2)N(C)C(=O)C2(CCCC2)NC(=O)[C@@H]2CC(F)(F)CCN2C(=O)[C@H](CCc2ccc(C(F)(F)F)c(Cl)c2)NC(=O)CN(C)C(=O)[C@@H]1Cc1ccc(C(F)(F)F)cc1 [PP0312] ([NMeL]I[Aze][Sar][NPrPhe(4-CF3)][Sar][hPhe(3-Cl-4-CF3)][Pip(4,4-F2)][Ac5c][NMeGly(cPent)][NMeD]-Morpholide; lactam N-11)
NRAS/KRAS (ratio of KD for GDP-bound NRAS wild-type to KD for KRAS) ([1]; SPR): B (a compound having 3 or more and less than 10 is denoted as B)
HRAS/KRAS (ratio of KD for GDP-bound HRAS wild-type to KD for KRAS) ([2]; SPR): B (a compound having 3 or more and less than 10 is denoted as B)

CCC(CC)[C@H]1C(=O)N(C)[C@H](C(=O)N(C)C)CC(=O)N(C)[C@@H](COC)C(=O)N[C@@H]([C@@H](C)CC)C(=O)N(C)CC(=O)N(C)[C@H]2C/C=C\CCN(C2=O)[C@@H](Cc2ccc(C)cc2)C(=O)N(C)CC(=O)N[C@@H](CCc2ccc(C(F)(F)F)c(Cl)c2)C(=O)N2CCCCC[C@H]2C(=O)NC2(CC(C)(C)C2)C(=O)N1C [PP2966]
NRAS/KRAS (ratio of KD value with respect to GDP-bound NRAS wild-type protein to KD value with respect to KRAS) [1]: A (a compound having 10 or more and less than 20 is denoted as A)
HRAS/KRAS (ratio of KD value with respect to GDP-bound HRAS wild-type protein to KD value with respect to KRAS) [2]: A (a compound having 10 or more and less than 20 is denoted as A)

CCC[C@H]1C(=O)N[C@@H]([C@@H](C)CC)C(=O)N(C)CC(=O)N(C)[C@H]2C/C=C\CCN(C2=O)[C@@H](Cc2ccc(C(F)(F)F)cc2)C(=O)N(C)CC(=O)N[C@@H](CCc2ccc(C(F)(F)F)c(Cl)c2)C(=O)N2C[C@H](OCC)C[C@H]2C(=O)NC2(CC(C)(C)C2)C(=O)N(C)[C@@H](CC(C)(C)C)C(=O)N(C)[C@H](C(=O)N(C)C)CC(=O)N1C [PP2969]
NRAS/KRAS (ratio of KD value with respect to GDP-bound NRAS wild-type protein to KD value with respect to KRAS) [1]: AA (a compound having 20 or more is denoted as AA)
HRAS/KRAS (ratio of KD value with respect to GDP-bound HRAS wild-type protein to KD value with respect to KRAS) [2]: A (a compound having 10 or more and less than 20 is denoted as A)
